Experimental data: the supplement of paper PMC10307832

Legend:
Assay in all cases: relative viability (nuclei count vs DMSO), 5 days (fraction); higher = more cells survive
Vemurafenib + Pictilisib = compound: CCCS(=O)(=O)Nc1ccc(F)c(C(=O)c2c[nH]c3ncc(-c4ccc(Cl)cc4)cc23)c1F [Vemurafenib] + CS(=O)(=O)N1CCN(Cc2cc3nc(-c4cccc5[nH]ncc45)nc(N4CCOCC4)c3s2)CC1 [Pictilisib] (partner 1 µM)
Summary of the method: (§1)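 Relative viability equals treated-well nuclei counts divided by vehicle-well nuclei counts. Counts came from 4× images of lung cancer cell lines grown in 1536-well plates for 5 days after pin-tool dosing on the day after seeding. Dosing used one drug alone or a fixed anchor-drug dose plus five library-drug doses (not always all listed) in √10 steps, and values are medians of duplicate plates.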

Vemurafenib + Foretinib = compound: CCCS(=O)(=O)Nc1ccc(F)c(C(=O)c2c[nH]c3ncc(-c4ccc(Cl)cc4)cc23)c1F [Vemurafenib] + COc1cc2c(Oc3ccc(NC(=O)C4(C(=O)Nc5ccc(F)cc5)CC4)cc3F)ccnc2cc1OCCCN1CCOCC1 [Foretinib] (partner 0.25 µM)
Summary of the method: as §1

OSI-027 + Foretinib = compound: COc1cccc2cc(-c3nc([C@H]4CC[C@H](C(=O)O)CC4)n4ncnc(N)c34)[nH]c12 [OSI-027] + COc1cc2c(Oc3ccc(NC(=O)C4(C(=O)Nc5ccc(F)cc5)CC4)cc3F)ccnc2cc1OCCCN1CCOCC1 [Foretinib] (partner 0.25 µM)
Summary of the method: as §1

OSI-027 + Navitoclax = compound: COc1cccc2cc(-c3nc([C@H]4CC[C@H](C(=O)O)CC4)n4ncnc(N)c34)[nH]c12 [OSI-027] + CC1(C)CCC(c2ccc(Cl)cc2)=C(CN2CCN(c3ccc(C(=O)NS(=O)(=O)c4ccc(N[C@H](CCN5CCOCC5)CSc5ccccc5)c(S(=O)(=O)C(F)(F)F)c4)cc3)CC2)C1 [Navitoclax] (partner 0.5 µM)
Summary of the method: as §1

Cell Line | relative viability (Vemurafenib + Pictilisib; first compound 0.03162 µM) | relative viability (Vemurafenib + Pictilisib; first compound 0.1 µM) | relative viability (Vemurafenib + Pictilisib; first compound 0.3162 µM) | relative viability (Vemurafenib + Pictilisib; first compound 1 µM) | relative viability (Vemurafenib + Foretinib; first compound 0.03162 µM) | relative viability (Vemurafenib + Foretinib; first compound 0.1 µM) | relative viability (Vemurafenib + Foretinib; first compound 0.3162 µM) | relative viability (Vemurafenib + Foretinib; first compound 1 µM) | relative viability (OSI-027 + Foretinib; first compound 0.01 µM) | relative viability (OSI-027 + Foretinib; first compound 0.03162 µM) | relative viability (OSI-027 + Foretinib; first compound 0.1 µM) | relative viability (OSI-027 + Foretinib; first compound 0.3162 µM) | relative viability (OSI-027 + Foretinib; first compound 1 µM) | relative viability (OSI-027 + Navitoclax; first compound 0.01 µM) | relative viability (OSI-027 + Navitoclax; first compound 0.03162 µM) | relative viability (OSI-027 + Navitoclax; first compound 0.1 µM) | relative viability (OSI-027 + Navitoclax; first compound 0.3162 µM) | relative viability (OSI-027 + Navitoclax; first compound 1 µM)
SK-MES-1 | 0.322 | 0.192 | 0.354 | 0.347 | 0.91 | 0.461 | 0.879 | 0.795 | 0.874 | 1.1 | 0.926 | 0.69 | 0.447 | 1.27 | 1.23 | 1.17 | 0.974 | 0.484
SW 1573 | 0.475 | 0.511 | 0.585 | 0.52 | 0.906 | 0.893 | 0.955 | 0.891 | 0.753 | 0.923 | 0.713 | 0.59 | 0.787 | 0.889 | 1.05 | 0.902 | 0.757 | 0.504
